One block for each molecule: values may come before it.
Experiments:
[1] = system: mouse model of oxygen-induced retinopathy (OIR); assay: Avascular area and pre-retinal neovascularization in OIR flatmount retinas; format: in vivo
[2] = system: mouse model of oxygen-induced retinopathy (OIR); assay: TUNEL staining of OIR retinas; format: in vivo; details: P14 OIR, intravitreal, vs vehicle-treated retinas
Excerpt: (§1) O2-induced retinopathy. Mouse pups from different strains (C57Bl/6 WT, LyzM-Cre, LysM-Cre/IRE1^fl/fl, LysM-Cre/IRE1^+/+, IRE1^fl/fl and LysM-Cre/ROSA26EYFP^fl/fl), and their fostering mothers (CD1, Charles River) were exposed to 75% 02 from postnatal day 7 (P7) to day 12 and returned to room air. This model serves as a proxy to human ocular neovascular diseases such as ROP and diabetic retinopathy characterized by a late phase of destructive pathological angiogenesis (72, 73). Upon return to room air, hypoxia-driven neovascularization (NV) develops from P14 onwards (27). We enucleated eyes at different time points and dissected the retinas for mRNA, protein assays or flatmounting.
(§2) Intravitreal injections. P2, P10 or P12 C57BL/6 pups were anesthetized with 3.0% isoflurane and injected in the vitreous chamber with 0.5 μL of lentivirus (see “Lentivirus production”), recombinant SEMA3A (100 ng/μL), metformin (10 μg/μL) or Aflibercept (10 μg/uL) using a 10-μL Hamilton syringe fitted with a […] glass capillary tip. Approximately 254±11.0 ng/μL of lentivirus Sh_GFP and 323.3±15.3 ng/μL containing Sh_Sema3a, Lv.Cre (15.0 ng/mL), Lv.GFP (15.0 ng/mL) was injected. Virus titers were assessed with the p24 ELISA kit (ZeptoMetrix). The titers of the lentiviruses used were (in ng p24) LV.Sh_RNA IRE1α (8.52 ng/mL), and LV.Sh_RNA.GFP (8.47 ng/mL).

[3] = Mouse weight gain on systemic administration of metformin; format: in vivo
[4] = system: mouse model of oxygen-induced retinopathy (OIR); assay: SA-β-gal staining of retinas in oxygen-induced retinopathy (OIR) after intravitreal injection; format: in vivo; details: single intravitreal injection at P12, vs vehicle
Excerpt: as §1
(§3) Senescence-associated β-galactosidase (SA-β-gal) assay. Senescence-associated β-galactosidase assays were carried out as described previously (57, 75)
Quantification of SA-β-gal in vivo. Senescence-associated β-galactosidase staining in flatmount retinas or sagittal eye sections were analyzed using Image J software as described in FIG. 14.
as §2

[5] = system: mouse model of oxygen-induced retinopathy (OIR); assay: Immunoblot and RT-qPCR of OIR retinas after intravitreal injection; format: in vivo
Excerpt: as §1
(§4) Semi-quantitative and Real-time PCR analysis. We isolated RNA using the GenElute™ Mammalian Total RNA Miniprep Kit (Sigma) and performed a digestion with DNase I to prevent amplification of genomic DNA. We reversed transcribed the RNA using M-MLV reverse transcriptase and analyzed gene expression using SybrGreen™ in an ABI Biosystems Real-Time PCR machine. β-actin was used as a reference gene. […] We investigated the splicing of XBP-1 by incubating the XBP-1 semi-quantitative PCR product with 0.4 U/μL of PstI enzyme for 5 hrs at 37° C. followed by separation on 2.5% agarose gel.
as §2
(§5) Western blotting. We enucleated eyes at varying time points and rapidly dissected and homogenized retinas for assessment of retinal protein levels. Protein concentration from retinal homogenate and cell lysates were assessed by BCA assay (Sigma), and then 30 μg of protein analyzed for each condition by standard SDS-PAGE technique.

retina = assay: Intravitreal injection of recombinant SEMA3A in mouse pups, senescence markers; format: in vivo; details: retina harvested at P5
Excerpt: FIG. 3A: Western blot analysis of SEMA3A protein expression level during OIR compared to normoxic controls at P10, P14, P17 and P21. β-actin is used as a loading control. FIG. 3B: Immunoblot analysis of SEMA3A protein levels during Ras-induced senescence in Mouse Embryonic Fibroblasts (MEFs). Cell lysates from MEFs retrovirally transduced with H-RasV12 oncogene or control empty vector harvested 14 days post-selection. FIG. 3C: SEMA3A transcript levels in human normal diploid fibroblasts (IMR90) retrovirally transduced with empty vector, MEK1 alone or MEK and human papillomavirus oncoproteins E6 and E7. […] FIG. 3I: HRMEC, retinal neurons (661W) and J774 (macrophages-like cells) stimulated with recombinant SEMA3A (100 ng/ml) or vehicle (CT) for 7 days, stained for SA-β-gal and quantification in FIG. 3J. […] Senescent cells were stained with SA-β-gal (right) and the level of secreted SEMA3A (S3A) protein in CM was evaluated by immunoblot (left). […] Senescence was evaluated after 7 days of treatment. FIG. 3M: Quantification of percentage of SA-β-gal positive cells treated as in (J). […]
Intravitreal injections. […] Virus titers were assessed with the p24 ELISA kit (ZeptoMetrix). […]
Western blotting. […] Protein concentration from retinal homogenate and cell lysates were assessed by BCA assay (Sigma), and then 30 μg of protein analyzed for each condition by standard SDS-PAGE technique.

[6] = system: Human retinal microvascular endothelial cells (HRMECs); assay: SEMA3A exposure of HRMECs (cell cycle FACS, ECIS, SA-β-gal); format: cell-based
Experimental: Flow Cytometry Analysis. Human retinal microvascular endothelial cells (HRMEC) cell cycle analysis (P1 biolegend) were performed according to the manufacturer's instructions and as previously reported (43). Briefly, HRMEC (1×10^6) were seeded in 6-well plates and incubated for 7 days with SEMA3A, 100 and 500 ng/ml. The samples were analyzed by flow cytometry. FACS was performed on a LSRII (BD Biosciences) device and data were analysed using FlowJo software (version 7.6.5).
Electric Cell-substrate Impedance Sensing (ECIS) Proliferation assay. Real-time analysis of trans-endothelial electric resistance was performed by plating 5000 HRMECs/ml were seeded onto 8W10E+ standard 8-well arrays (Applied BioPhysics, NY). Cells were allowed to grow leading to a capacitance of less than 10 nF. Cells were starved for 5 Hours with endothelial basal media (EBM-2, Lonza) and then treated with 100 ng/ml SEMA3A or vehicle (EBM-2) for 120 h and impedance was measured using an ECIS Zθ impedance instrument (Applied BioPhysics, NY). Measurements were taken for 120 h post treatment.
as §3
(§6) Preparation of conditioned media (CM). Human retinal microvascular endothelial cells (HRMECs), retinal neuron 661W photoreceptor cells and Mouse macrophages (J774A.1 cell line) were incubated for 7 days with recombinant SEMA3A (100 ng/μL), H2O2 (150 μM for 2 h) 48 h after transfection or not as indicated in each experiment. Supernatants were centrifuged and filtered and then frozen for subsequent use. For Western Blot on CM was concentrated using ultra centrifugal amicon filter unit from Millipore.

[7] = system: J774 macrophage/monocyte cells; assay: SEMA3A exposure of J774 macrophage/monocyte cells (SA-β-gal, immunoblot, RT-qPCR, γH2AX); format: cell-based, mouse
Experimental: as §4
For Protein localization, flatmounted retinas were incubated with different antibodies as indicated. For in vitro IF, cultured cells were plated on 0.1% gelatin-coated coverslips and serum-starved overnight and stimulated for 7 days with SEMA3A (100 ng/ml). Cells were washed briefly with cold PBS and fixed for 20 minutes in PBS containing 3.5% paraformaldehyde. Cells were rinsed with PBS and permeabilized with 0.3% Triton in PBS for 5 minutes. Fixed cells were blocked with 1% BSA and then incubated for 1 hour with primary antibodies in 0.1% BSA in PBS. Bound primary antibodies were visualized after 1 hour of incubation using Alexa Fluor secondary antibody. Coverslips were mounted using Fluoromount (Sigma-Aldrich) and analyzed by confocal microscope (Olympus confocal FV1000). Samples were viewed with a ×63/1.4 NA oil or ×30 objective. Images were assembled using Photoshop CS4 (Adobe Systems). For all antibodies used for immunohistochemistry, see Table 8.
as §3, §6, §5

retinal neurons (661W) = assay: SEMA3A exposure of 661W retinal neuron cell line (SA-β-gal); format: cell-based; details: 100 ng/ml, 7 days
Experimental: as §3
as §6, with “([…]),” for “(J774A.1 cell line) were incubated for 7 days with recombinant SEMA3A (100 ng/μL),”

[8] = intravitreal injection at P12, P14 OIR retinas
[9] = HRMECs, 7 days, 100 and 500 ng/ml, FACS

mouse weight gain [3]: interfered with mouse weight gain
Molecule: CN(C)C(=N)NC(=N)N [metformin, N,N-Dimethylimidodicarbonimidic diamide]
benefits on pathological retinal angiogenesis ([1]; administered via systemic paths): did not show any benefits
enhancement of vascular regeneration ([1]; intravitreal injection at P12, assessed at P17 OIR): more than 2 fold
pathological neovascularization at P17 OIR ([1]; intravitreal injection at P12, vs vehicle): by half
apoptosis in cells of the GCL (TUNEL) [2]: without aggravating apoptosis
number of apoptotic cells in the INL layer (TUNEL) [2]: lowered
SA-β-gal staining at P14 OIR [4]: significant decrease
SA-β-gal staining at P17 OIR (cellular senescence) [4]: significant decrease
Components of the VEGF signaling pathway (Vegf-a, Vegf-c, Vegfr-1, Vegfr-2 RT-qPCR) [5, 8]: not affected
IL6, Cdkn1a, Cdkn2a and Sema3A by RT-qPCR [5, 8]: significant decrease
NF-κB and IRE1α activation in retinas (immunoblot) ([5]; single intravitreal injection at P12, OIR P14 and P17): attenuated

B1: SEMA3A: Recombinant human Semaphorin 3A (from murine myeloma cell line, NS0) (R&D Systems) (protein)
chain: YQNGKNNVPRLKLSYKEMLESNNVITFNGLANSSSYHTFLLDEERSRLYVGAKDHIFSFDLVNIKDFQKIVWPVSYTRRDECKWAGKDILKECANFIKVLKAYNQTHLYACGTGAFHPICTYIEIGHHPEDNIFKLENSHFENGRGKSPYDPKLLTASLLIDGELYSGTAADFMGRDFAIFRTLGHHHPIRTEQHDSRWLNDPKFISAHLISESDNPEDDKVYFFFRENAIDGEHSGKATHARIGQICKNDFGGHRSLVNKWTTFLKARLICSVPGPNGIDTHFDELQDVFLMNFKDPKNPVVYGVFTTSSNIFKGSAVCMYSMSDVRRVFLGPYAHRDGPNYQWVPYQGRVPYPRPGTCPSKTFGGFDSTKDLPDDVITFARSHPAMYNPVFPMNNRPIVIKTDVNYQFTQIVVDRVDAEDGQYDVMFIGTDVGTVLKVVSIPKETWYDLEEVLLEEMTVFREPTAISAMELSTKQQQLYIGSTAGVAQLPLHRCDIYGKACAECCLARDPYCAWDGSACSRYFPTAKRRTRRQDIRNGDPLTHCSDLHHDNHHGHSPEERIIYGVENSSTFLECSPKSQRALVYWQFQRRNEERKEEIRVDDHIIRTDQGLLLRSLQQKDSGNYLCHAVEHGFIQTLLKVTLEVIDTEHLEELLHKDDDGDGSKTKEMSNSMTPSQKVWYRDFMQLINHPNLNTMDEFCEQVWKRDRKQRRQRPGHTPGNSNKWKHLQENKKGRNRRTHEFERAPRSV
modifications: left off: a dimerising Fc or GST
SA-β-gal staining of retina sagittal cryosections (retina): marked augmentation
p53, p16INK4a and IRE1α in retina (immunoblot) (retina): marked increase
senescence (SA-β-gal) in HRMECs ([6]; 100 ng/ml, 7 days): induces senescence
normal endothelial cell growth (ECIS) ([6]; HRMECs, 100 ng/ml): stunted
S phase [6, 9]: significantly reducing
cell cycle arrest in G0/G1 [6, 9]: increased
senescence (SA-β-gal) in macrophage-like J774 cells ([7]; 100 ng/ml, 7 days): induces senescence
expression of Pai1, Il6, Il1β, TGF-β and Tp53 (RT-qPCR) ([7]; J774, 100 ng/mL, 7 days): drove expression
senescence-associated DNA-damage foci expressing γH2AX ([7]; J774, 100 ng/mL, 7 days): promoted
IRE1α activation (p-IRE1α S724 immunoblot) ([7]; J774, sustained exposure, 100 ng/mL, 3 or 7 days): activated
senescence (SA-β-gal) in 661W retinal neuron cell line (retinal neurons (661W)): induces senescence
